Laboratory results published in patent publication US20230416307A1, “[…] PEPTIDES FOR ENHANCING VIRAL PRODUCTION” (Synvivia, Inc., priority 2022, published 2023).

Tested on: AAV6
Assay: Single-site amino acid substitution scanning of CPs by enrichment score in AAV6
Type: cell-based, adeno-associated virus
Settings: FIG. 29, relative to original CP
Description: This plot visually depicts the functional impact of mutations on a particular cyclic peptide as measured by enrichment score. The heatmap provides valuable insights into the mutational landscape of cyclic peptides, highlighting positions where certain amino acid substitutions are either not tolerated (e.g., resulting in depletion), are neutral (e.g., resulting in similar enrichment scores), or are favored (e.g., resulting in higher enrichment, indicating enhanced cyclic peptide variants).
The heatmap is structured with rows indicating the position of the original amino acid, while the columns represent the position of the mutated amino acid (for a given row). The X-axis corresponds to the 20 natural amino acid substitutions for a given cyclic peptide residue index. The Y axis represents the amino acids present in a specific cyclic peptide, starting from the top with the “scar” residue from the peptide cyclization splicing reaction of DNA expressed cyclic peptides. The scar residue is typically amino acids containing a nucleophilic side chain like cysteine, serine, or threonine. Each row is labeled by the native amino acid of a given CP with amino acid positions going from top to bottom (e.g. index 1 is at the top, followed by index 2 followed by, index 3, etc. . . . ). The final amino acid at the bottom cyclizes with the scar residue at top. […]

Ser2Pro: CSSLT with serine in residue index 2 substituted with proline (CPSLT; cyclic; Cyclic peptide that was found to enhance AAV TU:VG ratio and lentiviral titer.)
enrichment factor of single-site substitution variant: substantially increased enrichment factors
